The text below walks through data of US20200368314A1, “PEPTIDES FOR TREATMENT AND PREVENTION OF NONALCOHOLIC FATTY LIVER DISEASE” (UNIVERSITE DE STRASBOURG, priority 2017, published 2020).

Entries after “also recorded” stand apart in the source; their conditions may differ.

For one assay, the system named is DIO male mice. The experiment in a line: Oral glucose tolerance test, PATAD, metformin or both. The conditions noted are these: PATAD injection, metformin daily oral gavage.
Another assay has as its system albumin. The experiment in a line: Plasma free albumin determination. The format is in vivo, mouse. The conditions noted are these: 3 months after PATAD injection, N=5. How it is done:
Lipids are transported bound to albumin and therefore plasma content of free albumin was measured as a readout of the effect of PATAD stapled peptide sequence A on circulating lipid profile 3 months after PATAD injection. N=5 mice per group.
A decreased circulating free albumin concentration has been observed when the mice were treated with PATAD stapled peptide sequence A indicating an increase in the levels of circulating lipids (FIG. 6).
(§1) For GLP-1 measurement, a commercially available kit was used. RayBio Human/Mouse/Rat GLP-1 Enzyme Immunoassay Kit, EIA-GLP1, RayBiotech were used with the indicated procedures from the manufacturer. For the plasma albumin level determination, a commercially available kit was used.

The next assay has as its system GLP-1. Put plainly: Circulating GLP-1 enzyme immunoassay. The format is in vivo, mouse. The conditions noted are these: plasma; 11 days post single injection. How it is done:
FIG. 4: PATAD stapled peptide sequence A reduces FATP2 expression level in the adipose tissue and increases GLP-1 circulating levels • (A)4 month-old male mice fed with a high fat/high glucose diet were used in this set of experiment.
Mice were injected with a single dose of either scramble peptide or PATAD stapled peptide sequence A. 11 days post injection, the mice were euthanized, and plasma was obtained and used for determination of circulating GLP1 from mice with the indicated treatment.
as §1

For assay [1], the system named is ALT (Alanine Aminotransferase). Put plainly: Plasma ALT ELISA. The format is in vivo, mouse. The conditions noted are these: 3 months after a single subcutaneous injection, n=4. How it is done: (§2) Mean values of both AST and ALT measured by ELISA approach in plasma of mice with the indicated treatment. n=4 samples per group.
(§3) Mice presented in FIG. 1 were euthanized and their plasma and organs were sampled for analysis. […] Cryosection of the livers were then stained with Adipored and DAPI to detect the level of lipid droplets. […] Hepatic function is assessed by two liver related strong biomarkers namely (AST (Aspartate Aminotransferase) and ALT (Alanine Aminotransferase)), whose levels increase proportionately with liver damage.
(§4) Plasma samples from the indicated mice were used to determine plasma content of either AST (aspartate aminotransferase) or […] (alanine aminotransferase) both robust indicators of liver damage were measured using commercially purchased ELISA kits. These parameters were determined according to manufacturer's procedure.
SEA207Mu (96 Tests): Enzyme-linked Immunosorbent Assay Kit For Alanine Aminotransferase (ALT), Cloud Clone Corp
On the technique in general: ELISA stands for enzyme-linked immunosorbent assay.

The test system of assay [2] is AST (Aspartate Aminotransferase). Put plainly: Plasma AST ELISA. The class given is in vivo, mouse. The conditions noted are these: 3 months after a single subcutaneous injection, n=4. How it is done:
as §2, §3, §4
SEB214Mu (96 Tests): Enzyme-linked Immunosorbent Assay Kit For Aspartate Aminotransferase (AST), Cloud Clone Corp

Assay [3] has as its system FATP2 (Fatty acid transport protein 2). The experiment in a line: q-PCR expression of fatty acid transporters in adipose tissue. The format is in vivo, mouse. As to conditions: high fat/high glucose diet male mice; 11 days post single injection; GAPDH reference gene. The text has this: n=4 animals per group, GAPDH was used as reference gene. There are 6 isoforms of FATP (FATP1-6 also known as SLC27A1-SLC27A6).
As PATAD subcutaneous injection relates to restoration of glucose absorption in the adipose tissue, the inventors measured the expression levels of all 6 isoforms for the FATPs (1-6) (Fatty acid transport protein 1-6) and the 4 isoforms of the FFAR (Free Fatty Acid Receptor) to assess any effect on these genes.
All peptides were initially dissolved in DMSO and then diluted in sterile saline solution at a concentration of 10 ng/μL. 2.5 μL of each peptide (stapled or scrambled) were mixed and then injected directly in the subcutaneaous adipose tissue in each mouse. […]
Total RNA was prepared from the different tissues and cells using a RiboPure™ kit (Catalog #: AM1924; Ambion) followed by a DNAse treatment with the TURBO DNA-Free™ (Catalog #: AM 1907; Ambion). RNA integrity was assessed by gel electrophoresis and RNA concentration by Eppendorf Biophotometer Plus with the Hellma® Tray Cell (Catalog #: 105.810-uvs; Hellma). […] Real-time quantitative polymerase chain reaction amplification was performed in a BioRad CFX96™ Real-Time System using the iQ™ SYBR® Green Supermix (Catalog #: 170-8886; BioRAd) and primer sets optimized for tested targets for SYBR Green-based real-time PCR for the real-time PCR. […]

For `CN(C)C(=N)N=C(N)N` [metformin], in the assay on DIO male mice, the “onset of the effect on the GTT” value is reported as “delayed by one week”.

With “VE CTM-[2-(4-pentenyl) alanine]-EK RVL A-[2-(4-pentenyl)alanine]-L DKP PFL TQL HS [PATAD stapled peptide sequence A]”, the “circulating free albumin concentration” value in the assay with albumin is given as “decreased”. The “circulating GLP-1 concentration” value in the assay with GLP-1 is “restored high circulating levels; also recorded: restore GLP1 circulating levels back to lean controls”. Further, the “circulating ALT level” value in assay [1] is reported as “effective in reducing”. The “circulating AST level” value in assay [2] is recorded as “effective in reducing”. Also, the “FATP2 expression level in the adipose tissue” value in assay [3] is listed as “decreased; also recorded: reduces”.
